Reference: US20220226299A1 (NIPPON CHEMIPHAR CO., LTD., priority 2019, published 2022)

The compounds below were run against T1, human Cav3.2 channels (Homo sapiens, UniProt O95180) (assay: T-type calcium blocking action: intracellular calcium (Fluo-4 AM fluorescence) in HEK293 cells steadily expressing human Cav3.2 channels). Settings: HEK293 cells expressing human Cav3.2; KCl-stimulated calcium influx, Fluo-4 fluorescence; Tables 1 to 3.
T1 construct: human Cav3.2 channel ORF (Open Reading Frame) gene; expressed in transfected cells; host or cells: HEK293 cells (ATCC No. CRL-1573), pcDNA3.1(+) plasmid
Format: cell-based
Description: T-Type Calcium Blocking Action
(1) Construction of Cells Steadily Expressing Human Cav3.2 Channels
A sequence obtained by adding HindIII site and a kozak sequence (GCCACC) to the 5′-side of human Cav3.2 channel ORF (Open Reading Frame) gene and adding a KpnI site to the 3′-side of the gene, was incorporated into pcDNA3.1(+) (Thermo Fisher Scientific, #V790-20), and the plasmid was introduced into HEK293 cells (ATCC No. CRL-1573) according to the protocol of FuGENE (registered trademark) HD Transfection Reagent (Promega, #E2311).
(2) Method for Measuring Intracellular Calcium Concentration
The cells steadily expressing human Cav3.2 channels produced by testing method (1) were seeded on a 96-well plate (Dulbecco's modified Eagle medium (DMEM) medium containing 10% fetal bovine serum (FBS) was used as a medium). The cells were seeded and cultured for 48 hours under conditions of 37° C. and 5% CO2. Thereafter, the cells were washed with buffer A in order to remove the medium. Each well was treated with 80 μL of a fluorescent dye solution produced by mixing 22 μg of a fluorescent calcium indicator, Fluo-4 AM (Dojindo Laboratories, #F311), 20 μL of DMSO, 1 μL of 10% Pluronic F-127 (Thermo Fisher Scientific, #P6866), and 4 mL of buffer A. The cells were allowed to stand for 45 minutes at room temperature under light-shielded conditions, and then washed with buffer B in order to completely replace the solution. 70 μL of DMSO having the same concentration as that of a test compound as a negative control and 70 μL of a mixture containing 1 μM of a known blocker RQ-00311651 and the test compound as a positive control were each added to each well in a form of being contained in the buffer B. The test compound was dissolved in 100% DMSO and added at a final concentration of 0.1%. Then, the cells were further allowed to stand at room temperature under light-shielded conditions for 15 minutes and placed in a microplate reader EnVision (PerkinElmer). Background fluorescence was measured in each well, and then a 5 μg/mL grammicidin solution was added to buffer B at 10 μL/well. After 90 seconds, baseline fluorescence was measured. Thereafter, 83.8 mM KCl was added to buffer B at 20 μL/well, and an increase in fluorescence caused by calcium influx generated by the stimulus was measured for 10 seconds. A blocking percentage was calculated from a maximum fluorescence increase value from a baseline, a logarithmic value of a compound concentration and blockery activity were plotted, and thereby an IC50 value was calculated. In the measurement, fluorescence at 510 nm that was emitted when the cells were irradiated with excitation light at 485 nm was observed.
Buffer A: 140 mM NaCl, 5 mM KCl, 1 mM MgCl2, 0.5 mM CaCl2, 10 mM Glucose, 10 mM HEPES, pH 7.3
Buffer B: 137.9 mM Choline-Cl, 4.1 mM KCl, 1 mM MgCl2, 0.5 mM CaCl2, 10 mM Glucose, 10 mM HEPES, pH 7.3

T1 sequence (O95180 whole entry): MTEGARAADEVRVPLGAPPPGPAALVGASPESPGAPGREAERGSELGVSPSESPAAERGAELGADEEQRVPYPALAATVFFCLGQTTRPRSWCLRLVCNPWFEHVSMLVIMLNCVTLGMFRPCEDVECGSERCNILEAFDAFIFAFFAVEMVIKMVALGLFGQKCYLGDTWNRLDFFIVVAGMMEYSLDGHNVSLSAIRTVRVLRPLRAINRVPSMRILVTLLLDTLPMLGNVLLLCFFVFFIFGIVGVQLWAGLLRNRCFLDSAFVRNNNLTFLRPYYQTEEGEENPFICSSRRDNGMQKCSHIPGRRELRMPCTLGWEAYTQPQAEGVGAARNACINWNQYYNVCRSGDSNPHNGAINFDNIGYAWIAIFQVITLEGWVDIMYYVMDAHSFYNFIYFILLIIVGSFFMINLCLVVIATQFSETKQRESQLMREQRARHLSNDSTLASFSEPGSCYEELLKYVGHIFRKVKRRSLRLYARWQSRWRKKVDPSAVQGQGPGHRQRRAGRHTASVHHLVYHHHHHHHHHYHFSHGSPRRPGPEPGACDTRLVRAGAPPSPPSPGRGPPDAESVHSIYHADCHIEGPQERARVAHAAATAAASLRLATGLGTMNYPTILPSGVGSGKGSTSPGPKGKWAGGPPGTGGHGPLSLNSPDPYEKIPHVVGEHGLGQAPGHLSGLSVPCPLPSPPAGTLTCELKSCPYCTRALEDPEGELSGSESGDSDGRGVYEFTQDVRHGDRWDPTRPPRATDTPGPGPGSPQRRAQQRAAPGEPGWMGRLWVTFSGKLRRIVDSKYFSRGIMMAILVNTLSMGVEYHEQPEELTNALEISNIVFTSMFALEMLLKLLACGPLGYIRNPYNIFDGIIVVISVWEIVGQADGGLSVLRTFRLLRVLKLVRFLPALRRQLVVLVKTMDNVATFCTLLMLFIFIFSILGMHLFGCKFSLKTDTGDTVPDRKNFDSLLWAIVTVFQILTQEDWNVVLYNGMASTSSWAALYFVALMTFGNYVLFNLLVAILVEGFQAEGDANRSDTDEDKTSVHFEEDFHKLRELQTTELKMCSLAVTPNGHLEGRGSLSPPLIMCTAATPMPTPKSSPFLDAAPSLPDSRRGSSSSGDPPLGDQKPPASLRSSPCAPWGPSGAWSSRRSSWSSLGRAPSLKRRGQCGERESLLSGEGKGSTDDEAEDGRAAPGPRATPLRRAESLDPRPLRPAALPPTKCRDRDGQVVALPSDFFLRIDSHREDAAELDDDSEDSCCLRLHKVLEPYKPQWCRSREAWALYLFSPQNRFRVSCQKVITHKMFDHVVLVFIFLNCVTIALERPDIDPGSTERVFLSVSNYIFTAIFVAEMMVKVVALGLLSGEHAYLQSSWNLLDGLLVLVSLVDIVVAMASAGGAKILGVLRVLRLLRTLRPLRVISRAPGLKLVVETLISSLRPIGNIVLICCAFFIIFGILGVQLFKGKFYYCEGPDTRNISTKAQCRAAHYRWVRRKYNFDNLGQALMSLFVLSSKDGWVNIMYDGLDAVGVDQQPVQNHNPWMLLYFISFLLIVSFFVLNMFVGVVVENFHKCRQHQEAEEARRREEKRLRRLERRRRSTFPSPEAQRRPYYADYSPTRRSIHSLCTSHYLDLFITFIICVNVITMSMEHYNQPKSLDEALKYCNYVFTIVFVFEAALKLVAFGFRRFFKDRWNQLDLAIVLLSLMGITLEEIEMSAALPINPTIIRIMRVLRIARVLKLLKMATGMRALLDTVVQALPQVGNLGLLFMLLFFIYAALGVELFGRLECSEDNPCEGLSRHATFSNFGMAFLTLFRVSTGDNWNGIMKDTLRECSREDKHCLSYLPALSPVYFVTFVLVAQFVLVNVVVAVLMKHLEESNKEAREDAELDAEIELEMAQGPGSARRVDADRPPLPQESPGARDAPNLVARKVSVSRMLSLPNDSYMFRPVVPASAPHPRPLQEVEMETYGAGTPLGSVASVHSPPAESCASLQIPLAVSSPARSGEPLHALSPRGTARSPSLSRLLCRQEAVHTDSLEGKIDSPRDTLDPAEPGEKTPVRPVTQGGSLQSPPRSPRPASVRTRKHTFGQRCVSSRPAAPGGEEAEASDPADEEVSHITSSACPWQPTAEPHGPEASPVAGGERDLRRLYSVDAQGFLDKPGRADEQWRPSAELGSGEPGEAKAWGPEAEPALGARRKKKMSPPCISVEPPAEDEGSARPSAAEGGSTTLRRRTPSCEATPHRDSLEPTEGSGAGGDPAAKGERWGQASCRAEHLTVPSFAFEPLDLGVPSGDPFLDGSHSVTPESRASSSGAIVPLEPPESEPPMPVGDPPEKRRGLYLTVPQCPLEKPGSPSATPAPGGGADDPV

SMILES | IC50
C[Si](C)(C)c1ccc(CC(=O)N[C@@H]2CCN(c3cncc(C(F)(F)F)c3)C2)cc1 [Example 26, (R)—N-(1-(5-(trifluoromethyl)pyridin-3-yl)pyrrolidin-3-yl)-2-(4-(trimethylsilyl)phenyl)acetamide] | 150 nM
CC(C)c1ccc(CC(=O)N[C@@H]2CCN(c3cncc(C(F)(F)F)c3)C2)cc1 [Example 4, (R)-2-(4-isopropylphenyl)-N-(1-(5-(trifluoromethyl)pyridin-3-yl)pyrrolidin-3-yl)acetamide] | 14 nM
O=C(N[C@@H]1CCN(c2cncc(C(F)(F)F)c2)C1)C1CC1c1ccc(F)c(F)c1 (single isomer, unassigned) [Example 107B] | 560 nM
O=C(Cc1ccc(C2CC2)cc1)N[C@@H]1CCN(c2nc3ccc(F)cc3s2)C1 [Example 172, (R)-2-(4-cyclopropylphenyl)-N-(1-(6-fluorobenzo[d]thiazol-2-yl)pyrrolidin-3-yl)acetamide] | 550 nM
O=C(N[C@@H]1CCN(c2cncc(C(F)(F)F)c2)C1)C1CC1c1ccc(Br)cc1 (single isomer, unassigned) [Example 100B] | 460 nM
NC(C(=O)N[C@@H]1CCN(c2cncc(C(F)(F)F)c2)C1)c1ccc(C2CC2)cc1 (single isomer, unassigned) [Example 137A] | 100 nM
CC(C(=O)N[C@@H]1CCN(c2ccc(C(F)(F)F)nc2)C1)c1ccc(C(F)(F)F)cc1 (stereo partly drawn) [Example 185, 2-(4-(Trifluoromethyl)phenyl)-N—((R)-1-(6-(trifluoromethyl)pyridin-3-yl)pyrrolidin-3-yl)propanamide] | 1400 nM
O=C(Cc1ccc(C2CC2)cc1)NC1(C(=O)O)CCN(c2cncc(C(F)(F)F)c2)C1 (stereo not drawn) [Example 14, 3-(2-(4-cyclopropylphenyl)acetamido)-1-(5-(trifluoromethyl)pyridin-3-yl)pyrrolidine-3-carboxylic acid] | 5200 nM
O=C(Cc1ccc(N2CCC(F)(F)C2)cc1)N[C@@H]1CCN(c2cncc(C(F)(F)F)c2)C1 [Example 176, (R)-2-(4-(3,3-difluoropyrrolidin-1-yl)phenyl)-N-(1-(5-(trifluoromethyl)pyridin-3-yl)pyrrolidin-3-yl)acetamide] | 7.3 nM
O=C(N[C@@H]1CCN(c2cncc(C(F)(F)F)c2)C1)C1CC1c1ccc(Cl)cc1 (single isomer, unassigned) [Example 108A] | 5.7 nM
O=C(Cc1ccc(Br)cc1)N[C@@H]1CCN(c2cncc(C(F)(F)F)c2)C1 [Example 171, (R)-2-(4-bromophenyl)-N-(1-(5-(trifluoromethyl)pyridin-3-yl)pyrrolidin-3-yl)acetamide] | 110 nM
O=C(Cc1ccc(C(F)(F)F)cn1)N[C@@H]1CCN(c2cncc(C(F)(F)F)c2)C1 [Example 2, (R)-2-(5-(trifluoromethyl)pyridin-2-yl)-N-(1-(5-(trifluoromethyl)pyridin-3-yl)pyrrolidin-3-yl)acetamide] | 1300 nM
CC(C)c1ccc(CC(=O)N[C@@H]2CCN(c3ncc(C(F)(F)F)cn3)C2)cc1 [Example 111, (R)-2-(4-isopropylphenyl)-N-(1-(5-(trifluoromethyl)pyrimidin-2-yl)pyrrolidin-3-yl)acetamide] | 9900 nM
O=C(Cc1ccc(C2CC2)cc1)N[C@@H]1CCN(c2ccc(C(F)(F)F)nc2)C1 [Example 121, (R)-2-(4-cyclopropylphenyl)-N-(1-(6-(trifluoromethyl)pyridin-3-yl)pyrrolidin-3-yl)acetamide] | 120 nM
CC(C)Cc1ccc([C@H](C)C(=O)N[C@@H]2CCN(c3cncc(C(F)(F)F)c3)C2)cc1 [Example 31, (S)-2-(4-isobutylphenyl)-N—((R)-1-(5-(trifluoromethyl)pyridin-3-yl)pyrrolidin-3-yl)propanamide] | 210 nM
Cn1nnc2cc(CC(=O)N[C@@H]3CCN(c4cncc(C(F)(F)F)c4)C3)ccc21 [Example 167, (R)-2-(1-methyl-1H-benzo[d][1,2,3]triazol-5-yl)-N-(1-(5-(trifluoromethyl)pyridin-3-yl)pyrrolidin-3-yl)acetamide] | 160 nM
O=C(N[C@@H]1CCN(c2cncc(C(F)(F)F)c2)C1)[C@H]1C[C@@H]1c1nc2ccccc2o1 [Example 39, (1S,2S)-2-(benzo[d]oxazol-2-yl)-N—((R)-1-(5-(trifluoromethyl)pyridin-3-yl)pyrrolidin-3-yl)cyclopropane-1-carboxyamide] | 22 nM
O=C(Cc1ccc(N2CCOCC2)cc1)N[C@@H]1CCN(c2cncc(C(F)(F)F)c2)C1 [Example 181, (R)-2-(4-morpholinophenyl)-N-(1-(5-(trifluoromethyl)pyridin-3-yl)pyrrolidin-3-yl)acetamide] | 25 nM
Nc1ccc(CC(=O)N[C@@H]2CCN(c3cncc(C(F)(F)F)c3)C2)cc1 [Example 33, (R)-2-(4-aminophenyl)-N-(1-(5-(trifluoromethyl)pyridin-3-yl)pyrrolidin-3-yl)acetamide] | 1000 nM
Cn1nnc2cc(CC(=O)N[C@@H]3CCN(c4ccc(C(F)(F)F)nc4)C3)ccc21 [Example 168, (R)-2-(1-methyl-1H-benzo[d][1,2,3]triazol-5-yl)-N-(1-(6-(trifluoromethyl)pyridin-3-yl)pyrrolidin-3-yl)acetamide] | 170 nM
O=C(Cc1ccc2ncsc2c1)N[C@@H]1CCN(c2ccc(C(F)(F)F)nc2)C1 [Example 158, (R)-2-(benzo[d]thiazol-6-yl)-N-(1-(6-(trifluoromethyl)pyridin-3-yl)pyrrolidin-3-yl)acetamide] | 1100 nM
O=C(Cc1ccc(C2CC2)cc1)N[C@@H]1CCN(c2nc(C(F)(F)F)cs2)C1 [Example 16, (R)-2-(4-cyclopropylphenyl)-N-(1-(4-(trifluoromethyl)thiazol-2-yl)pyrrolidin-3-yl)acetamide] | 320 nM
O=C(Cc1ccc2[nH]ncc2c1)N[C@@H]1CCN(c2ccc(C(F)(F)F)nc2)C1 [Example 160, (R)-2-(1H-indazol-5-yl)-N-(1-(6-(trifluoromethyl)pyridin-3-yl)pyrrolidin-3-yl)acetamide] | 6400 nM
O=C(Cc1ccc(C(F)(F)F)nc1)N[C@@H]1CCN(c2cncc(C(F)(F)F)c2)C1 [Example 82, (R)-2-(6-(trifluoromethyl)pyridin-3-yl)-N-(1-(5-(trifluoromethyl)pyridin-3-yl)pyrrolidin-3-yl)acetamide] | 750 nM
O=C(Cc1ccc(C2CC2)cc1)N[C@@H]1CCN(c2cc(C(F)(F)F)c[n+]([O-])c2)C1 [Example 134A, (R)-3-(3-(2-(4-cyclopropylphenyl)acetamido)pyrrolidin-1-yl)-5-(trifluoromethyl)pyridine 1-oxide] | 930 nM
COC(=O)C1(NC(=O)Cc2ccc(C(F)(F)F)cc2)CCN(c2cncc(C(F)(F)F)c2)C1 (stereo not drawn) [Example 38, Methyl 3-(2-(4-(trifluoromethyl)phenyl)acetamido)-1-(5-(trifluoromethyl)pyridin-3-yl)pyrrolidine-3-carboxylate] | 35 nM
O=C(N[C@@H]1CCN(c2nc3ccc(F)cc3s2)C1)[C@H]1C[C@@H]1c1nc2ccccc2[nH]1 [Example 72, (1S,2S)-2-(1H-benzo[d]imidazol-2-yl)-N—((R)-1-(6-fluorobenzo[d]thiazol-2-yl)pyrrolidin-3-yl)cyclopropane-1-carboxyamide] | 210 nM
O=C(Cc1ccc2cc[nH]c2c1)N[C@@H]1CCN(c2cncc(C(F)(F)F)c2)C1 [Example 124, (R)-2-(1H-indol-6-yl)-N-(1-(5-(trifluoromethyl)pyridin-3-yl)pyrrolidin-3-yl)acetamide] | 62 nM
O=C(Cc1ccc(C2CC2)cc1)N[C@@H]1CCN(c2cncc(C(F)(F)F)c2)C1 [Example 1, (R)-2-(4-cyclopropylphenyl)-N-(1-(5-(trifluoromethyl)pyridin-3-yl)pyrrolidin-3-yl)acetamide] | 13 nM
O=C(Cc1ccc(C2CC2)cc1)NC1(C(F)(F)F)CCN(c2cncc(C(F)(F)F)c2)C1 (stereo not drawn) [Example 161, 2-(4-cyclopropylphenyl)-N-(3-(trifluoromethyl)-1-(5-(trifluoromethyl)pyridin-3-yl)pyrrolidin-3-yl)acetamide] | 260 nM
